Experimental data published in patent US20210221822A1, “TRICYCLIC DERIVATIVES INHIBITOR, PREPARATION METHOD, AND APPLICATIONS THEREOF” (Jiangsu Hansoh Pharmaceutical Group Co., Ltd., priority 2018, published 2021).
Like-named read-outs stand apart in the source and are kept apart here. One block for each compound: values may come before it.

Key:
PI3Kα = biological target: T1, PI3Kα (Homo sapiens, UniProt P42336); test: ADP-Glo lipid kinase assay, PI3Kα kinase activity; assay type: biochemical; conditions: for IC50: ADP-Glo, 0.1 nM enzyme, 120 min, 50 μM ATP; for Selectivity of PI3Kα vs PI3Kβ: ratio of IC50 PI3Kβ to IC50 PI3Kα; for Selectivity of PI3Kα vs PI3Kγ: ratio of IC50 PI3Kγ to IC50 PI3Kα; for Selectivity of PI3Kα vs PI3Kδ: ratio of IC50 PI3Kδ to IC50 PI3Kα
T1 construct: purchased Promega V1721
T1 sequence (P42336 whole entry): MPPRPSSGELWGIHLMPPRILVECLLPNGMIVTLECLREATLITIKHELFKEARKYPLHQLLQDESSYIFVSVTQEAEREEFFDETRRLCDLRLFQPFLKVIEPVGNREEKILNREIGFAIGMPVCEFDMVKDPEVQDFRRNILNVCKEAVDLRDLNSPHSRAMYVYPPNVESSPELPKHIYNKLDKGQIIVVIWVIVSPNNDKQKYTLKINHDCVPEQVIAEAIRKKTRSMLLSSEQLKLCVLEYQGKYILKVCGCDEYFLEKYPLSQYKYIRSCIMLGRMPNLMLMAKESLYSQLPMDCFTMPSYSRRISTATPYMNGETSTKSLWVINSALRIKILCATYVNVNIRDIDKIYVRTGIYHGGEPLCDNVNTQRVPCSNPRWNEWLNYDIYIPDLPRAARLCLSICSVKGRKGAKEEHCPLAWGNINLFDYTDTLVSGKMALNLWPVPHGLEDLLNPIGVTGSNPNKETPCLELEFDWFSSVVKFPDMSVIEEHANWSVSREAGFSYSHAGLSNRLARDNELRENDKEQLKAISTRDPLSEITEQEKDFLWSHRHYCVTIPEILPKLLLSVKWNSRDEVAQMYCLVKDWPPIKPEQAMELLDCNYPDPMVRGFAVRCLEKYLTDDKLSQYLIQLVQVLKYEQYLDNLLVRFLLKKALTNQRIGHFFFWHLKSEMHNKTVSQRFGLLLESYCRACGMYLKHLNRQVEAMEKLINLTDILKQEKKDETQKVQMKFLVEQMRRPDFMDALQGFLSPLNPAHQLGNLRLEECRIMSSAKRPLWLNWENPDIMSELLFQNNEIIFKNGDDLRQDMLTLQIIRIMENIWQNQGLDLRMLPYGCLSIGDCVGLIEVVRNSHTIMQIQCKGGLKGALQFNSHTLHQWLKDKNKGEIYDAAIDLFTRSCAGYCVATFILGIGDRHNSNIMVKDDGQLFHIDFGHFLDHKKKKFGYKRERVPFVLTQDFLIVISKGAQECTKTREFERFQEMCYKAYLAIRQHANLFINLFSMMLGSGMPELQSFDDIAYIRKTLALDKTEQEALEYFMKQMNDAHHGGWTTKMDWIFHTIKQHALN
T1 sequence (P27986 whole entry partner): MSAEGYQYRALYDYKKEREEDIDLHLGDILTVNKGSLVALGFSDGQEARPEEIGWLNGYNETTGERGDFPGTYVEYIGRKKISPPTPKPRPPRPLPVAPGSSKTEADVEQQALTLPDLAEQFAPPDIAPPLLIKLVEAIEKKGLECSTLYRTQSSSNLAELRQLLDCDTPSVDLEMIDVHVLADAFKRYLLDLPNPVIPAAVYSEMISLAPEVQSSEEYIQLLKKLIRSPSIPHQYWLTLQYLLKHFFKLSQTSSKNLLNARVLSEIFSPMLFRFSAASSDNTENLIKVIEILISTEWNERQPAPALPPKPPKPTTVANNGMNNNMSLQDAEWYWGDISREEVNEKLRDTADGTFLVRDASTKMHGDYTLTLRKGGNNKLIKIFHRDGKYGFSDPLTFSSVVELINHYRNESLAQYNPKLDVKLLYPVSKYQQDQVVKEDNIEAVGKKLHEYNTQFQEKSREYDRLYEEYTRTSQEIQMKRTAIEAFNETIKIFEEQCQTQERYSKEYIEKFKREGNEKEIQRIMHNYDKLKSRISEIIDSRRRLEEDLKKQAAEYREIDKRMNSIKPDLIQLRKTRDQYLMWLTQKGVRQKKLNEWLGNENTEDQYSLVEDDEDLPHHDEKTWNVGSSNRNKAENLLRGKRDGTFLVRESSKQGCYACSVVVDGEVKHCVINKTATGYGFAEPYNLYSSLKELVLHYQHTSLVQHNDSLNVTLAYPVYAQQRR
Description: (§1) Experimental method: Promega's ADP-Glo lipid kinase assay method (Promega #V9102) was applied in this experiment. Lipid kinase PI3Kα/β/γ/δ catalyzed the generation of ADP from ATP in the presence of the substrate PIP2: 3PS and ATP. The lipid kinase activity was characterized by measuring the ADP content in the reaction, and the half inhibitory concentration IC50 of the compound on inhibiting PI3Kα/β/γ/δ kinase activity was thus obtained.
(§2) The kinase reaction was carried out in a white 384-well plate (Perkin Elmer #6007299). 2 μL of the compound solution of different concentrations diluted with ddH2O containing 1% DMSO was added to each well. 2 μL of ddH2O containing 1% DMSO was added to the positive control well. 2 μL of 0.1-2 nM PI3K kinase solution diluted with 5× kinase buffer (HEPES 250 mM, MgCl2 15 mM, NaCl 250 mM, BSA 0.05%) was added to each well. 2 μL of 5× kinase buffer was added to the negative control well. 4 μL of 50 μM substrate PIP2: 3PS (Promega #V1701) formulated with 10× Dilution buffer and ddH2O was added to all wells. Finally, 2 μL of […] ATP solution diluted with water was added to start the reaction. After the reaction was carried out at room temperature for 90 to 120 minutes, 10 μL of ADP-Glo Reagent (containing 10 mM MgCl2) was added to each well, and reacted at room temperature for 60 minutes to remove excess ATP in the reaction. 20 μL of Kinase Detection Reagent was added to each well, and reacted at room temperature in the dark for 20 minutes. The chemiluminescence value was measured by the BioTek Synergy H1 microplate reader.
(§3) The percentage inhibition data of the compound-treated well was calculated through the positive control well (DMSO control well) and negative control well (no kinase added) on the plate {% inhibition rate=100−[(test compound value−negative control value)]/(positive control value−negative control value)×100}. The IC50 value was calculated by fitting the data of different concentrations and corresponding percentage inhibition rates to a four-parameter nonlinear logic formula with GraphPad prism.

[1] = Toxicity test of a 7-day repeatedly intragastric administration in SD rats; assay type: in vivo
From the text: (§4) 1) In the experiment, 112 rats (56 rats/sex) were divided into 14 groups by sex and body weight, wherein 70 rats were used for toxicology study (groups 1 to 7, 5 rats/sex/group) and 42 rats were used for toxicokinetics study (groups 8 to 14, 3 rats/sex/group).
2) As the vehicle control group, the animals in groups 1 and 8 were intragastrically administered 20% aqueous SBE-(3-CD (Captisol) solution.
(§5) 3) The animals in groups 2 and 9, groups 3 and 10, and groups 4 and 11 were intragastrically administered GDC-0077 at 10, 30 and 60 mg/kg, respectively.
(§6) 4) The animals in groups 5 and 12, groups 6 and 13, and groups 7 and 14 were intragastrically administered the compound of Example 51 at 10, 30 and 60 mg/kg, respectively.
(§7) 5) The animals were administered once a day for 7 consecutive days (the animals in groups 7 and 14 were administered for 6 consecutive days).
6) The administration volume was 10 mL/kg.
(§8) 7) During the experiment, items such as clinical observation, body weight, food intake, clinicopathological indicators (blood cell count, coagulation function, blood biochemistry), toxicokinetics and the like were studied.
8) All animals were euthanized on Day 8 (the animals in groups 7 and 14 were euthanized after administration on Day 6).
9) During the experiment, gross anatomy observation was carried out on animals in groups 1 to 7, animals in group 14 and dead animals (including animals in toxicokinetics study), and histopathological examination was carried out on abnormal tissues, gastrointestinal tissues (such as colon and cecum) and immune tissues (such as thymus).

PI3Kγ = biological target: T2, PI3Kγ (Homo sapiens, UniProt P48736); test: ADP-Glo lipid kinase assay, PI3Kγ kinase activity; assay type: biochemical; conditions: 0.4 nM enzyme, 120 min, 50 μM ATP
T2 construct: purchased Thermofisher PV4786
T2 sequence (P48736 whole entry): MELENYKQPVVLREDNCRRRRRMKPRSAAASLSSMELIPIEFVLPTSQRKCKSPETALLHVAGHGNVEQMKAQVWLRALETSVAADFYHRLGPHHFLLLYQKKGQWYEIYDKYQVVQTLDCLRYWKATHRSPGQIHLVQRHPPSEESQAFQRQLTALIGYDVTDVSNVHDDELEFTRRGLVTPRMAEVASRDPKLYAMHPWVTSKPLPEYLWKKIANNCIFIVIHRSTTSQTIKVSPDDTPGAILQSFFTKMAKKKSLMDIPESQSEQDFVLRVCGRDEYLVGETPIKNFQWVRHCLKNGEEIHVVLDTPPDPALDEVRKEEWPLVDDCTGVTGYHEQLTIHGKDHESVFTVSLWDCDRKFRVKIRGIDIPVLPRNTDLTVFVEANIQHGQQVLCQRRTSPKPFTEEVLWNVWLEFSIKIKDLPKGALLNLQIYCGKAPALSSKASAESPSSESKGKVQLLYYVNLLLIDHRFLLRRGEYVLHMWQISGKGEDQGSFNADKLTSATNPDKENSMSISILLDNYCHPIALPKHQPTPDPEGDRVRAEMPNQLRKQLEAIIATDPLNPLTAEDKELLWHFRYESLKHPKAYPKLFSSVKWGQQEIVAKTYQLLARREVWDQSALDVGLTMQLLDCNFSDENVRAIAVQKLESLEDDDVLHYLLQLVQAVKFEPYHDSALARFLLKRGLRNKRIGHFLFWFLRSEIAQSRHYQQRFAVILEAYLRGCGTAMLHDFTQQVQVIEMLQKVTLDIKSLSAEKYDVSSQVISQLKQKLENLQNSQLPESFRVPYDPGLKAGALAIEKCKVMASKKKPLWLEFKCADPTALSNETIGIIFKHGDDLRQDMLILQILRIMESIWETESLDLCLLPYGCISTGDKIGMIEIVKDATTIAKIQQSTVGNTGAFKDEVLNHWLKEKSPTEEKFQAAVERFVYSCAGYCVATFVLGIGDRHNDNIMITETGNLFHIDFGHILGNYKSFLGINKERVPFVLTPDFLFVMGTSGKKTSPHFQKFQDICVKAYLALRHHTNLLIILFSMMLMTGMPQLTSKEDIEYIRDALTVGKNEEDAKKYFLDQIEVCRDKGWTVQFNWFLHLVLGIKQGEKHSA
Description: as §1, §2, §3

PI3Kδ = biological target: T3, PI3Kδ (Homo sapiens, UniProt O00329); test: ADP-Glo lipid kinase assay, PI3Kδ kinase activity; assay type: biochemical; conditions: 0.1 nM enzyme, 90 min, 100 μM ATP
T3 construct: purchased Carna 11-103
T3 sequence (O00329 whole entry): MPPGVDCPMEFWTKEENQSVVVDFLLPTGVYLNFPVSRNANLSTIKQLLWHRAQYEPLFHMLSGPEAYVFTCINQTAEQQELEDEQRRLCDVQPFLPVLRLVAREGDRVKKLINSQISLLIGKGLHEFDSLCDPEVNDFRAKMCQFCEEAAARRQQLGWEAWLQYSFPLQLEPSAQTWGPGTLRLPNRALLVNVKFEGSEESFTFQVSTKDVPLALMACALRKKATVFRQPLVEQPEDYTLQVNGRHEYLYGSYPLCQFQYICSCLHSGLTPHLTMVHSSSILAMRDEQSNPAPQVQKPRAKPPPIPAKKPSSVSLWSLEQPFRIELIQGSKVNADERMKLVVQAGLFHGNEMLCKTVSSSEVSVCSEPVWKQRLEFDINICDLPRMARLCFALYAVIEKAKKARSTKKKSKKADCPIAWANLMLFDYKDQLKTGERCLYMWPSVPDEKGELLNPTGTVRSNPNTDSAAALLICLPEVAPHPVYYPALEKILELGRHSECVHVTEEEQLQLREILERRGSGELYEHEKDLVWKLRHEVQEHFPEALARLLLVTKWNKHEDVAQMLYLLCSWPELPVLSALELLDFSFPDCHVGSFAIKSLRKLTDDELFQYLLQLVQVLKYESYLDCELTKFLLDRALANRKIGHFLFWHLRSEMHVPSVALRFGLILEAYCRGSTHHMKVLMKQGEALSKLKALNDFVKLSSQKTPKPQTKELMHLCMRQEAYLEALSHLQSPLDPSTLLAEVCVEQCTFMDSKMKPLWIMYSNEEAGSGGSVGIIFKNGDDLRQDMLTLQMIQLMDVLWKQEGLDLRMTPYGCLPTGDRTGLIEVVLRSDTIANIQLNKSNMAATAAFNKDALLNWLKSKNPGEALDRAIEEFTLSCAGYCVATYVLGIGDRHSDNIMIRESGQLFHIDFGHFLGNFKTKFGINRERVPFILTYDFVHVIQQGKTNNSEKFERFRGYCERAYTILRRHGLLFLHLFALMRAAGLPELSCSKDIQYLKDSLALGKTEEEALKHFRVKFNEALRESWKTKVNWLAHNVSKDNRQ
T3 sequence (P27986 whole entry partner): as the sequence (P27986 whole entry partner) above
Description: as §1, §2, §3

PI3Kβ = biological target: T4, PI3Kβ (Homo sapiens, UniProt P42338); test: ADP-Glo lipid kinase assay, PI3Kβ kinase activity; assay type: biochemical; conditions: 0.4 nM enzyme, 90 min, 100 μM ATP
T4 construct: purchased Carna 11-102
T4 sequence (P42338 whole entry): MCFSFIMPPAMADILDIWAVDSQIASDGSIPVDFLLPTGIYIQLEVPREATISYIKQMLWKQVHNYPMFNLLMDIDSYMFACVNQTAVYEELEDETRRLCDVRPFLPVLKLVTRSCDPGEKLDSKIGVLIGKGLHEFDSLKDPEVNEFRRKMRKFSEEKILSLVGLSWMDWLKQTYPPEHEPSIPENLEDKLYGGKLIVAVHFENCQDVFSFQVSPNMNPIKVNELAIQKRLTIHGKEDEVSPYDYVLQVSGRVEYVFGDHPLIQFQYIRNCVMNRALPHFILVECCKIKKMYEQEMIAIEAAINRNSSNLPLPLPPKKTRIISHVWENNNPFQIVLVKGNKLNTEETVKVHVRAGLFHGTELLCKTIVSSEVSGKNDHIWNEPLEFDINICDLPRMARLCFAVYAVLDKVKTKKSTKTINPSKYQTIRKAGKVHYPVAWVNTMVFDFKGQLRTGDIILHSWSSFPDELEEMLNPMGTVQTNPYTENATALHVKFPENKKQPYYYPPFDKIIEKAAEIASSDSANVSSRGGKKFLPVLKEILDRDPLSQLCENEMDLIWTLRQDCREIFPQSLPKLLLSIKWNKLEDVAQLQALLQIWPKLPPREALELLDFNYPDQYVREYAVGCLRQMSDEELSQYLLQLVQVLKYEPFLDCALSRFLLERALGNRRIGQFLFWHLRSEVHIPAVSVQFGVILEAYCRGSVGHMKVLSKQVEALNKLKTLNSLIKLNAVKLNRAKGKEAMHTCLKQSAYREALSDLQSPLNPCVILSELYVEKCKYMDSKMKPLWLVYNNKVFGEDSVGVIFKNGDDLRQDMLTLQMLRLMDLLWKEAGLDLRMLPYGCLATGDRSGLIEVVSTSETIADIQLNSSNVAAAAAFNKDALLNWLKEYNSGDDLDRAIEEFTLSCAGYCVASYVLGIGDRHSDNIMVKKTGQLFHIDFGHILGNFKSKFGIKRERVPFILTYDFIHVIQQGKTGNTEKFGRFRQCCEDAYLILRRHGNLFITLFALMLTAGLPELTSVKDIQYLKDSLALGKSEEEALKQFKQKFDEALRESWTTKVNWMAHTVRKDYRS
T4 sequence (P27986 whole entry partner): as the sequence (P27986 whole entry partner) above
Description: as §1, §2, §3

[2] = Toxicokinetics in the 7-day repeated intragastric administration study in SD rats; assay type: in vivo, Sprague-Dawley (SD) rats; conditions: for AUC: Sprague-Dawley, rat, plasma, po, after the last administration, read-out: average system exposure AUC
From the text: Liquid chromatography−mass spectrometry (detector: API4000, electrospray source (ESI) positive ion mode, column: Agilent ZORBAX XDB-C18 (3.5 μm, 2.1×50 mm)), which was used for the biological analysis of plasma sample.
as §4, §5, §6, §7, §8

[3] = Pharmacokinetic (PK) assay in mice; assay type: in vivo; conditions: male, Balb/c, mouse, plasma, po, single intragastric 5 mg/kg
Description: The pharmacokinetic assay of the preferred compounds of the examples of the present invention in mice was carried out in Balb/c male mice (Shanghai Jiesijie Laboratory Animal Co., LTD). • Administration mode: single intragastric administration. • Administration dose: 5 mg/10 ml/kg (body weight). • Formulation: the compound was dissolved in 0.5% CMC-Na by ultrasound to obtain a clear solution or homogeneous suspension. • Sampling points: 0.5, 1, 2, 4, 6, 8 and 24 hours after administration. • Sample process: • 1) 0.1 mL of blood was taken from the orbit, placed in a K2-EDTA tube, and centrifuged for 5 to 20 minutes at room temperature at 1000 to 3000×g to separate the plasma, which was then stored at −80° C. • 2) 160 uL of acetonitrile was added to 40 uL of plasma sample for precipitation, and then the mixture was centrifuged for 5 to 20 minutes at 500 to 2000×g. • 3) 100 uL of processed supernatant was taken and analyzed by LC/MS/MS assay to determine the concentration of the test compound. • LC-MS/MS assay: • Liquid chromatography condition: Shimadzu LC-20AD pump • Mass spectrometry condition: AB Sciex API 4000 mass spectrometer • Chromatographic column: phenomenex Gemiu 5 μm C18 50×4.6 mm • Mobile phase: solution A was 0.1% aqueous formic acid solution, and solution B was acetonitrile • Flow rate: 0.8 mL/min • Elution time: 0-4 minutes gradient elution • Pharmacokinetics: […]
The main parameters were calculated using WinNonlin 6.1.

[4] = test system: PI3Kα mutant cancer cells MKN1 (E545K); test: Cell Titer-Glo proliferation inhibition, MKN1; assay type: cell-based; conditions: Homo sapiens, MKN-1, 48 to 96 hours
Description: (§9) Experimental method: The proliferation inhibitory effect of the compounds of the examples on PI3Kα mutant cancer cell lines HCC1954, HGC-27 and MKN1 was determined by Cell Titer-Glo method. The cell lines were cultured in RPMI 1640 medium (Gibco #22400089) containing 10% FBS (Gibco #10091148) and 1% P/S (Hyclone #SV30010) at 37° C. and 5% CO2. Before the experiment, the cells were collected and counted, and then the cell density was adjusted. The cells were inoculated in a white 96-well plate (Corning #3610) at a density of 1000 to 10000 cells/well, and incubated in an incubator at 37° C., 5% CO2 overnight. The compound solution of different concentrations was added, and corresponding vehicle control was set at the same time. The cell plate was further incubated in an incubator at 37° C., 5% CO2 for 48 to 96 hours. The cell plate and its content were equilibrated to room temperature. 20 to 100 μL of Cell Titer-Glo solution (Promega #G7573) was added to each well, and the plate was shaked well and incubated at room temperature in the dark for 5 to 30 minutes. The chemiluminescence value was measured by the BioTek SynergyH1 microplate reader.
(§10) The percentage inhibition data of the well treated by the compounds of the examples was calculated through the vehicle control well on the plate {% inhibition rate=100−(test compound value/vehicle control value)×100}. The IC50 value was calculated by fitting the data of different concentrations and corresponding percentage inhibition rates to a four-parameter nonlinear logic formula with GraphPad prism.

[5] = test system: PI3Kα mutant cancer cells HCC1954 (H1047R); test: Cell Titer-Glo proliferation inhibition, HCC1954; assay type: cell-based; conditions: Homo sapiens, 48 to 96 hours
Description: as §9, §10

[6] = test system: PI3Kα mutant cancer cells HGC-27 (E542K); test: Cell Titer-Glo proliferation inhibition, HGC-27; assay type: cell-based; conditions: Homo sapiens, 48 to 96 hours
Description: as §9, §10

[7] = SD rats, 10, 30 and 60 mg/kg (low, middle, high dose)

SMILES: C[C@H](Nc1ccc2c(c1)OCCn1cc(N3C(=O)SC[C@H]3C(F)F)nc1-2)C(N)=O [Example 51, (S)-2-((2-((R)-4-(difluoromethyl)-2-oxothiazolidin-3-yl)-5,6-dihydrobenzo[f]imidazo[1,2-d][1,4]oxazepin-9-yl)amino)propanamide]
- IC50 (PI3Kα): 0.0002 µM
- Selectivity of PI3Kα vs PI3Kβ (PI3Kα): 840
- Selectivity of PI3Kα vs PI3Kγ (PI3Kα): 450
- Selectivity of PI3Kα vs PI3Kδ (PI3Kα): 245
- main target organs of the toxicity ([1]; SD rats): gastrointestinal tissues (such as stomach and cecum) and immune tissues (such as thymus)
- tolerance compared with GDC-0077 ([1]; SD rats): better than that of GDC-0077
- Blood biochemistry ([1]; SD rats, 10, 30 and 60 mg/kg): In 60 mg/kg group, AST, Glu and UREA increased in both male and female animals; in 30 mg/kg group, AST and UREA increased in both male and female animals, and Glu increased in male animals; and in 10 mg/kg group, AST increased in both male and female animals
- Blood cell counting and coagulation function ([1]; SD rats, 10, 30 and 60 mg/kg): In each dose group, Retic decreased in both male and female animals; and in 30 mg/kg group and 60 mg/kg group, Neut increased and PLT decreased in both male and female animals
- Pathology, pathological changes under the microscope ([1]; SD rats, 10, 30 and 60 mg/kg): bleeding and atrophy of glandular gastric mucosa; bleeding of cecal mucosa, atrophy of goblet cell, atrophy of colonic mucosa goblet cell; atrophy of splenic white pulp; and atrophy of thymic cortex or cortex and medulla, increase in tingible body macrophages and the like
- Body weight and food intake [1, 7]: In the low-dose, middle-dose and high-dose groups, the final body weight declined, and the corresponding food intake also declined
- Clinical observation [1, 7]: In the middle-dose and high-dose groups, abnormal symptoms such as arched back, loose stools, perianal contamination and fluffy coat were observed
- Near-death/death ([1]; SD rats, dose of 60 mg/kg): near-dead/dead animals were found
- lethal dose ([1]; SD rats, intragastric once/day for 7 days): 60 mg/kg
- MTD at 7 days ([1]; both sexes, Sprague-Dawley, rat, in vivo, po, SD rats, intragastric once/day for 7 days, read-out: maximum tolerated dose (MTD)): 30 mg/kg
- IC50 (PI3Kγ): 0.09 µM
- IC50 (PI3Kδ): 0.049 µM
- IC50 (PI3Kβ): 0.168 µM
- Cmax and AUC(0-24h) compared with GDC-0077 ([2]; 30 mg/kg): significantly higher than those of GDC-0077
- AUC ([2]; 10 mg/kg intragastric once a day, female): 3170 ng·h/mL
- AUC ([2]; 10 mg/kg intragastric once a day, male): 2110 ng·h/mL
- AUC ([2]; 30 mg/kg intragastric once a day, female): 15900 ng·h/mL
- AUC ([2]; 30 mg/kg intragastric once a day, male): 11400 ng·h/mL
- system exposure compared with GDC-0077 ([2]; same dose): significantly higher than that of GDC-0077 at the same dose
- AUC(0-t) ([3]; read-out: Area under curve AUC0-t): 2180 ng·h/mL
- AUC(0-inf) ([3]; read-out: Area under curve AUC0-∞): 2270 ng·h/mL
- half-life ([3]; read-out: Half-life t1/2(h) (converted)): 1.6 h
- MRT ([3]; read-out: Mean residence time MRT): 2.2 h
- Tmax ([3]; read-out: Peak time tmax): 0.5 h
- Cmax ([3]; read-out: Plasma concentration Cmax): 1060 ng/mL

- IC50 (PI3Kα): 0.0021 µM
- Selectivity of PI3Kα vs PI3Kβ (PI3Kα): 1514
- Selectivity of PI3Kα vs PI3Kγ (PI3Kα): 158
- Selectivity of PI3Kα vs PI3Kδ (PI3Kα): 68
- IC50 [4]: 0.584 µM
- IC50 (PI3Kγ): 0.332 µM
- IC50 (PI3Kδ): 0.142 µM
- IC50 (PI3Kβ): 3.18 µM
- IC50 [5]: 0.601 µM
- IC50 [6]: 0.433 µM
SMILES: C[C@H](Nc1ccc2c(c1)OCCn1cc(N3C(=O)CN(C)C[C@H]3C(F)F)nc1-2)C(N)=O [Example 69, (S)-2-((2-((S)-2-(difluoromethyl)-4-methyl-6-oxopiperazin-1-yl)-5,6-dihydrobenzo[f]imidazo[1,2-d][1,4]oxazepin-9-yl)amino)propanamide]

- IC50 (PI3Kα): 0.0013 µM
- Selectivity of PI3Kα vs PI3Kβ (PI3Kα): 146
- Selectivity of PI3Kα vs PI3Kγ (PI3Kα): 57
- Selectivity of PI3Kα vs PI3Kδ (PI3Kα): 38
- IC50 [4]: 0.398 µM
- IC50 (PI3Kγ): 0.074 µM
- IC50 (PI3Kδ): 0.05 µM
- IC50 (PI3Kβ): 0.19 µM
- IC50 [5]: 0.14 µM
- IC50 [6]: 0.371 µM
SMILES: C[C@H](Nc1ccc2c(c1)OCCn1cc(N3C(=O)OC[C@H]3CC#N)nc1-2)C(N)=O [Example 118, (S)-2-((2-((R)-4-(cyanomethyl)-2-oxooxazolidin-3-yl)-5,6-dihydrobenzo[f]imidazo[1,2-d][1,4]oxazepin-9-yl)amino)propanamide]
